Assay results taken from US3931147A, “Water-soluble derivatives of sodium mannoheptonate” (International Telephone and Telegraph Corporation, priority 1973, dated 1976).

Test: Swelling of clay in water: viscosity and gel strength of sodium bentonite dispersion
Settings: in words
Experimental: Additional tests were conducted to determine the utility of the metal complexes of the invention on the swelling of clay in water. 6 grams of the product were dissolved in 300 ml. of distilled water, and the pH of the solution was adjusted to 10.5 with sodium hydroxide. 30 grams of sodium bentonite were then added and the mixture was bottled and rolled 16 hours at 70°C. Viscosity and gel strengths were then determined using a Fann model 35 viscometer. Lowered viscosity and gels indicate decreased swelling and viscosity building.

## aluminum
  inhibiting the swelling of bentonite clays: most effective
